{
  "source": "paper PMC6494879",
  "about": "“Drug resistance emergence in macaques administered cabotegravir long-acting for pre-exposure prophylaxis during acute SHIV infection” (Nature Communications, 2019)",
  "key": {"[1]": {"tested_on": "SIV integrase E92Q/G140R (SIV IN RTV pseudovirus)", "assay_type": "cell-based", "conditions": "E92Q/G140R SIV integrase mutant"}, "[2]": {"tested_on": "SIV integrase I250V (SIV IN RTV pseudovirus)", "assay": "organism not typed", "assay_type": "cell-based"}, "[3]": {"tested_on": "SIV integrase G140R (SIV IN RTV pseudovirus)", "assay": "organism not typed", "assay_type": "cell-based", "conditions": "HEK293"}, "[4]": {"tested_on": "SIV integrase Q124R (SIV IN RTV pseudovirus)", "assay": "organism not typed", "assay_type": "cell-based"}, "[5]": {"tested_on": "SIV integrase E92G (SIV IN RTV pseudovirus)"}, "[6]": {"tested_on": "SIV integrase E92Q (SIV IN RTV pseudovirus)", "assay_type": "cell-based", "conditions": "E92Q SIV integrase mutant"}},
  "data": [
    {"smiles": "C[C@H]1CO[C@@H]2Cn3cc(C(=O)NCc4ccc(F)cc4F)c(=O)c(O)c3C(=O)N12", "note": "[CAB, cabotegravir]", "values": [
      {"measurement": "fold-change relative to wild type integrase", "setting": "[1]", "value": "> 840", "unit": "fold"},
      {"measurement": "EC50", "setting": "[2]; HEK293", "value": 1.04, "unit": "nM"},
      {"measurement": "fold-change relative to wild type integrase", "setting": "[2]; {}", "value": 0.9, "unit": "fold"},
      {"measurement": "EC50", "setting": "[3]", "value": "> 1000", "unit": "nM"},
      {"measurement": "EC50", "setting": "[4]; HEK293", "value": 1.22, "unit": "nM"},
      {"measurement": "fold-change relative to wild type integrase", "setting": "[4]; {}", "value": 1.0, "unit": "fold"},
      {"measurement": "EC50", "setting": "[5]", "value": 4.2, "unit": "nM"},
      {"measurement": "fold-change relative to wild type integrase", "setting": "[5]", "value": 3.5, "unit": "fold"},
      {"measurement": "fold-change relative to wild type integrase", "setting": "[6]", "value": 2.5, "unit": "fold"}
    ]}
  ]
}
